Experimental data published in patent US20190046552A1, “COMPOSITIONS AND METHODS FOR THE TREATMENT OF HCV INFECTION” (priority 2015, published 2019).
Where two headings read alike, the source gives them in different places.

Assay: Part B (MAD): plasma PK of Formula (IIa) and its metabolites after once-daily oral Formula (IIa) for 7 days, fasted
Type: in vivo, human
Details: for Cmax / half-life / AUC(0-t) / Tmax / AUC(0-inf): human, in vivo
Procedure: Part B was a blinded, randomized, placebo-controlled MAD study consisting of four cohorts of eight subjects randomized 6:2 to receive Formula (IIa) or placebo. […] To control for the possible effect of the IL28b genotype, the number of subjects with CC alleles was capped at three per cohort.
The starting dose was determined by the SRC based on review of all safety and any available PK/PD data from Part A. All subjects were dosed in the fasted state with Formula (IIa) daily, from Day 1 until […]. All subjects had nothing by mouth other than water for at least 10 hours prior to daily dosing and for 4 hours thereafter. In Part B, all subjects were administered the study medication orally with approximately 240 mL of water at the same time every day (+/−10 minutes).
A subset of blood samples shown in Table 3 above was used for the PK evaluation of plasma trough concentrations (Table 4). In addition, blood sample assessment of antiviral response was collected according to the following sampling schedule for Part B (Table 4).
All plasma PK calculations were performed using actual time points calculated relative to the time of last drug administration.
PK analysis was conducted for all enrolled subjects that received any dose of Formula (IIa) with sufficient plasma sample data to assess PK parameters. […] Data analysis was performed using a validated version of WinNonlin® Enterprise (Version 5.2) software, and summary tables and figures were generated using a validated version of WinNonlin® Autopilot™ (Version 1.1.1) and other reporting tools, including SigmaPlot®.

## CO[C@H]1C(OP(=O)(OC[C@H]2O[C@@H](n3cnc4c(N)ncnc43)CC2O)SCOC(=O)OC(C)C)[C@@H](CO)O[C@H]1n1ccc(=O)[nH]c1=O (stereo partly drawn) [Formula (IIa)]
900 mg Formula (IIa) QD oral, fasted, Day 7, plasma, median (min, max)
  Tmin: 0.00 h
200 to 900 mg Formula (IIa), Days 1 and 7, read-out: Cmax range
  Cmax: 0.531 to 6.66 ng/mL
Day 1, 400 mg and 900 mg QD doses, read-out: mean plasma t1/2 range
  half-life: 0.963 to 1.05 h
Day 1, 200-900 mg Formula (IIa) QD, read-out: mean AUC0-24 range across dose levels
  AUC(0-t): 0.512 to 7.91 ng·h/mL
Day 1, 200-900 mg Formula (IIa) QD, read-out: mean Cmax range across dose levels
  Cmax: 0.531 to 3.75 ng/mL
Day 1, 200-900 mg Formula (IIa) QD, read-out: median Tmax, range across dose levels
  Tmax: 1 to 1.51 h
Day 7, 400 mg and 900 mg QD doses, read-out: mean plasma t1/2 range
  half-life: 0.684 to 1.07 h
Day 7, 200-900 mg Formula (IIa) QD, read-out: mean AUC0-24 range across dose levels
  AUC(0-t): 0.77 to 13.7 ng·h/mL
Day 7, 200-900 mg Formula (IIa) QD, read-out: mean Cmax range across dose levels
  Cmax: 0.885 to 6.66 ng/mL
Day 7, 200-900 mg Formula (IIa) QD, read-out: median Tmax, range across dose levels
  Tmax: 1 to 1.28 h
Days 1 and 7, across dose levels, read-out: terminal half-life (t1/2), range of means
  half-life: 0.684 to 1.07 h
po, 200 mg, 200 mg Formula (IIa) QD oral, fasted, Day 1, plasma, arithmetic mean (CV %), read-out: AUC0-24
  AUC(0-t): 0.512 ng·h/mL
po, 200 mg, 200 mg Formula (IIa) QD oral, fasted, Day 1, plasma, arithmetic mean (CV %), read-out: AUC0-t
  AUC(0-t): 0.393 ng·h/mL
po, 200 mg, 200 mg Formula (IIa) QD oral, fasted, Day 1, plasma, arithmetic mean (CV %), read-out: Cmax
  Cmax: 0.531 ng/mL
po, 200 mg, 200 mg Formula (IIa) QD oral, fasted, Day 1, plasma, median (min, max), read-out: Tmax
  Tmax: 1 h
po, 200 mg, 200 mg Formula (IIa) QD oral, fasted, Day 7, plasma, arithmetic mean (CV %), footnote: AUC0-24 = AUC0-t on Day 7, read-out: AUC0-24
  AUC(0-t): 0.77 ng·h/mL
po, 200 mg, 200 mg Formula (IIa) QD oral, fasted, Day 7, plasma, arithmetic mean (CV %), read-out: AUC0-t
  AUC(0-t): 1.41 ng·h/mL
po, 200 mg, 200 mg Formula (IIa) QD oral, fasted, Day 7, plasma, arithmetic mean (CV %), read-out: Cmax
  Cmax: 0.885 ng/mL
po, 200 mg, 200 mg Formula (IIa) QD oral, fasted, Day 7, plasma, median (min, max), read-out: Tmax
  Tmax: 1 h
po, 400 mg, 400 mg Formula (IIa) QD oral, fasted, Day 1, plasma, arithmetic mean (CV %), read-out: AUC0-24
  AUC(0-t): 7.91 ng·h/mL
po, 400 mg, 400 mg Formula (IIa) QD oral, fasted, Day 1, plasma, arithmetic mean (CV %), read-out: AUC0-t
  AUC(0-t): 3.27 ng·h/mL
po, 400 mg, 400 mg Formula (IIa) QD oral, fasted, Day 1, plasma, arithmetic mean (CV %), read-out: Cmax
  Cmax: 2.13 ng/mL
po, 400 mg, 400 mg Formula (IIa) QD oral, fasted, Day 1, plasma, arithmetic mean (CV %), read-out: t1/2 (converted)
  half-life: 1.05 h
po, 400 mg, 400 mg Formula (IIa) QD oral, fasted, Day 1, plasma, median (min, max), read-out: Tmax
  Tmax: 1.51 h
po, 400 mg, 400 mg Formula (IIa) QD oral, fasted, Day 7, plasma, arithmetic mean (CV %), footnote: AUC0-24 = AUC0-t on Day 7, read-out: AUC0-24
  AUC(0-t): 2.71 ng·h/mL
po, 400 mg, 400 mg Formula (IIa) QD oral, fasted, Day 7, plasma, arithmetic mean (CV %), read-out: AUC0-t
  AUC(0-t): 3.1 ng·h/mL
po, 400 mg, 400 mg Formula (IIa) QD oral, fasted, Day 7, plasma, arithmetic mean (CV %), read-out: Cmax
  Cmax: 2.52 ng/mL
po, 400 mg, 400 mg Formula (IIa) QD oral, fasted, Day 7, plasma, arithmetic mean (CV %), read-out: t1/2 (converted)
  half-life: 0.684 h
po, 400 mg, 400 mg Formula (IIa) QD oral, fasted, Day 7, plasma, median (min, max), read-out: Tmax
  Tmax: 1.28 h
po, 900 mg, 900 mg Formula (IIa) QD oral, fasted, Day 1, plasma, arithmetic mean (CV %), read-out: AUC0-24
  AUC(0-t): 4.58 ng·h/mL
po, 900 mg, 900 mg Formula (IIa) QD oral, fasted, Day 1, plasma, arithmetic mean (CV %), read-out: AUC0-t
  AUC(0-t): 5.31 ng·h/mL
po, 900 mg, 900 mg Formula (IIa) QD oral, fasted, Day 1, plasma, arithmetic mean (CV %), read-out: Cmax
  Cmax: 3.75 ng/mL
po, 900 mg, 900 mg Formula (IIa) QD oral, fasted, Day 1, plasma, arithmetic mean (CV %), read-out: t1/2 (converted)
  half-life: 0.963 h
po, 900 mg, 900 mg Formula (IIa) QD oral, fasted, Day 1, plasma, median (min, max), read-out: Tmax
  Tmax: 1.04 h
po, 900 mg, 900 mg Formula (IIa) QD oral, fasted, Day 7, plasma, arithmetic mean (CV %), footnote: AUC0-24 = AUC0-t on Day 7, read-out: AUC0-24
  AUC(0-t): 13.7 ng·h/mL
po, 900 mg, 900 mg Formula (IIa) QD oral, fasted, Day 7, plasma, arithmetic mean (CV %), read-out: AUC0-t
  AUC(0-t): 9.39 ng·h/mL
po, 900 mg, 900 mg Formula (IIa) QD oral, fasted, Day 7, plasma, arithmetic mean (CV %), read-out: Cmax
  Cmax: 6.66 ng/mL
po, 900 mg, 900 mg Formula (IIa) QD oral, fasted, Day 7, plasma, arithmetic mean (CV %), read-out: t1/2 (converted)
  half-life: 1.07 h
po, 900 mg, 900 mg Formula (IIa) QD oral, fasted, Day 7, plasma, median (min, max), read-out: Tmax
  Tmax: 1.25 h
400 mg Formula (IIa) QD oral, fasted, Day 1, plasma, arithmetic mean (CV %)
  AUC(0-inf): 8.04 ng·h/mL
900 mg Formula (IIa) QD oral, fasted, Day 1, plasma, arithmetic mean (CV %)
  AUC(0-inf): 7.25 ng·h/mL
Multiple once daily oral Formula (IIa) QD for 7 days, fasted
  mean trough levels: BLQ
